{"source": "patent US10499645B2", "about": "“Nematicidal aqueous suspension concentrate compositions” (Monsanto Technology LLC, priority 2012, dated 2019)", "format_in_all_cases": "physicochemical", "key": {"[1]": {"test": "Non-competitive slurry experiments (XRD)", "settings": "ambient temperature", "procedure": "In addition to the solvent recrystallization experiments, non-competitive slurry experiments were performed to search for new solid-state forms of 3-phenyl-5-(thiophen-2-yl)-1,2,4-oxadiazole. These experiments rely on solubility differences of different polymorphic forms (if the compound exists in different polymorphic forms).\nEssentially, when a solid is mixed with solvent to create slurry, a saturated solution eventually results. The solution is saturated with respect to the polymorphic form dissolved. […] In addition, noncompetitive slurry experiments are often useful in identifying solvents that form solvates with the compound.\nThe slurry experiments were performed by exposing excess supplied material to solvents and agitating the resulting suspensions for several days at ambient temperature. The solids were filtered using a WHATMAN Grade 1 apparatus (11 μm pore size) and analyzed by XRD to determine the resulting form(s). To avoid possible desolvation or physical change after isolation, the samples were not dried before X-ray analysis."}, "[2]": {"test": "Storage stability of polymorphs (XRD)"}, "[3]": {"test": "Grinding analysis (ball mill, XRD)", "settings": "ball mill 2 minutes at 4800 oscillations per minute", "procedure": "Batches of 3-phenyl-5-(thiophen-2-yl)-1,2,4-oxadiazole polymorphic Forms I and II were ground using a CRESCENT WIG-L-BUG ball mill for 2 minutes at 4800 oscillations per minute (3.2 m/s) in two separate experiments. […] The Form II used in this experiment was obtained by recrystallization from the melt of Form I, as described in Example 14, above, […]"}, "[4]": {"test": "Mechanical pressure analysis (CARVER press, XRD)", "settings": "approximately 15,000 psi for approximately 20 seconds", "procedure": "Batches of 3-phenyl-5-(thiophen-2-yl)-1,2,4-oxadiazole polymorphic Forms I and II were placed in a CARVER press and compressed at approximately 15,000 psi for approximately 20 seconds in two separate experiments. XRD analysis was performed on the samples. The resulting XRD pattern matched the starting material in both experiments, as shown in FIGS. 5A and 5B for Forms I and II, respectively. […] The Form II used in this experiment was obtained by recrystallization from the melt of Form I, as described in Example 14, above."}}}
{"smiles": "c1ccc(-c2noc(-c3cccs3)n2)cc1", "note": "[Form I, 3-phenyl-5-(thiophen-2-yl)-1,2,4-oxadiazole]", "values": [{"measurement": "form resulting from slurry experiments (summary)", "setting": "[1]; approximately 12 days of slurring", "value": "Form I"}, {"measurement": "storage stability / hydrate formation (XRD)", "setting": "[2]; 75 and 84% RH, ambient temperature, 4 weeks, open Petri dishes", "value": "does not form a hydrate and appears to be thermodynamically stable over time at ambient conditions"}, {"measurement": "polymorphic transformation on grinding", "setting": "[3]", "value": "no transformation"}, {"measurement": "change of polymorphic form under pressure", "setting": "[4]", "value": "did not reveal any changes in the polymorphic form"}]}
{"smiles": "c1ccc(-c2noc(-c3cccs3)n2)cc1", "note": "[Form II, 3-phenyl-5-(thiophen-2-yl)-1,2,4-oxadiazole]", "values": [{"measurement": "form resulting from slurry experiments (summary)", "setting": "[1]; approximately 7 days of slurring", "value": "Form I"}, {"measurement": "storage stability (XRD)", "setting": "[2]; scintillation vial in a hood, ambient conditions, approximately 6 days", "value": "showed signs of transformation to Form I"}, {"measurement": "polymorphic transformation on grinding", "setting": "[3]", "value": "transformed to Form I"}, {"measurement": "change of polymorphic form under pressure", "setting": "[4]", "value": "did not reveal any changes in the polymorphic form"}]}
